The values below come from patent publication US20260152487A1 (Sitryx Therapeutics Limited, priority 2021, published 2026).

For assay [1], the target named is T1, recombinant human PKM2 (Homo sapiens, UniProt P14618).
T1 construct: His (N); purchased R&D Systems
Put plainly: Human PKM2 activation assay (Kinase-Glo Plus luminescent detection of generated ATP). The conditions noted are these: for Emax: percentage activation normalised to DMSO vehicle (LOW) and 5 μM TEPP-46 (HIGH), read-out: hPKM2 Emax; for pEC50: recombinant human PKM2 activation, 4-parameter logistic fit, read-out: hPKM2 EC50. It counts as biochemical. In short, it runs like this:
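Luminescent ATP detection (Kinase-Glo Plus, 15 min, 26 °C) followed a 60 min, 26 °C shaken reaction of compound with […] His-tagged human PKM2, PEP and ADP in imidazole/KCl/MgCl2 buffer with Tween20 and BSA, pH 7.2.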

The subject of assay [2] is A549 cells. Put plainly: A549 cell proliferation in low-serine medium (CellTiter-Glo 2.0 viable cell number). It counts as cell-based. The following applies: Homo sapiens, 72 h, 3 days, Assay Medium with 20 μM L-serine. On the procedure:
The effect of compounds of Formula (Ia) on A549 cell proliferation in low-serine medium was assessed using a luminescence assay of viable cell number (CellTiter-Glo® 2.0, Promega) duplexed with a fluorescent cytotoxicity assessment (CelITox™ Green, Promega). Cell culture reagents were from ThermoFisher unless specified otherwise. Assay reagents were from Sigma-Aldrich unless specified otherwise. Test Compounds were prepared as 10 mM DMSO stocks and dilution series prepared in DMSO for direct dilution into culture medium.
Cells were passaged every 3-4 days at 80-90% confluence. The cell monolayer was washed twice with room-temperature Ca^2+/Mg-free PBS and 4 ml room-temperature trypsin-EDTA added to the flask. After 5 minutes' incubation (37° C., 5% CO2) to detach cells, trypsin was quenched with 13 ml warmed complete growth medium and the cells harvested and diluted to 2.4×10^4 cells/ml for dispensing into 384-well clear-bottom black-walled plates (600 cells/well).
Following overnight incubation, growth medium was aspirated from each well and the cells washed twice with Assay Medium comprising Basal Medium Eagle supplemented with 3% heat-inactivated dialysed FBS plus 2 mM L-glutamine plus 20 μM L-serine (Sigma-Aldrich). After aspiration of the final wash medium, Assay Medium containing Test Compound was added to each well. DMSO vehicle controls were included on each plate.
Cells were incubated for 3 days in a humidified incubator (37° C., 5% CO2) at which point CelITox™ Green and CellTiter-Glo® reagents were prepared according to the manufacturer's instructions. Triton-X was added to HIGH wells for cytotoxicity determination and the plate incubated for 30 minutes (20° C., ambient humidity and pCO2). CelITox™ Green reagent was added to each well and the plate covered, placed on an orbital shaker @450 rpm for 2 minutes, and incubated in the dark for 15 minutes (20° C., ambient humidity and pCO2). Endpoint fluorescence was measured using a plate reader (PHERAstar® FSX, BMG Labtech).
Following cytotoxicity determination, CellTiter-Glo® reagent was added to each well and the plate placed on an orbital shaker @450 rpm for 2 minutes to lyse cells. Plates were incubated in the dark for 15-30 minutes (20° C., ambient humidity and pCO2) prior to endpoint luminescence measurement (PHERAstar® FSX, BMG Labtech).
Proliferation was calculated by normalizing luminescence signals to LOW controls obtained from a parallel plate processed at the time of Test Compound challenge and HIGH (DMSO vehicle) wells from the compound plate. IC50 values were determined from a 4-parameter logistic fit of compound concentration-response curves.
(In general: Cellular ATP, detected with luciferase, serves as a proxy for viable cell number.)

In assay [3] the target is T2, recombinant human PKLR (Homo sapiens, UniProt P30613).
T2 construct: His (N); purchased R&D Systems
Description: Human PKLR activation assay (Kinase-Glo Plus luminescent detection of generated ATP). It counts as biochemical. The conditions noted are these: for pEC50: activation of recombinant human PKLR, 4-parameter logistic fit, read-out: hPKLR EC50; for Emax: percentage activation normalised to DMSO vehicle (LOW) and 5 μM TEPP-46 (HIGH) controls, read-out: hPKLR Emax (%). (Kinase-Glo reads ATP consumption through a luciferase reaction.)

pEC50, pIC50: −log10 of the molar value.

As usually defined, the Emax is the maximal effect, on the per cent scale that the assay sets. By pEC50 is commonly meant the negative decadic logarithm of the EC50, by convention in mol/L. By pIC50 is commonly meant −log10 of the IC50, conventionally taken in molar units. Read a high pIC50 as a small IC50.

T2 sequence (P30613 whole entry): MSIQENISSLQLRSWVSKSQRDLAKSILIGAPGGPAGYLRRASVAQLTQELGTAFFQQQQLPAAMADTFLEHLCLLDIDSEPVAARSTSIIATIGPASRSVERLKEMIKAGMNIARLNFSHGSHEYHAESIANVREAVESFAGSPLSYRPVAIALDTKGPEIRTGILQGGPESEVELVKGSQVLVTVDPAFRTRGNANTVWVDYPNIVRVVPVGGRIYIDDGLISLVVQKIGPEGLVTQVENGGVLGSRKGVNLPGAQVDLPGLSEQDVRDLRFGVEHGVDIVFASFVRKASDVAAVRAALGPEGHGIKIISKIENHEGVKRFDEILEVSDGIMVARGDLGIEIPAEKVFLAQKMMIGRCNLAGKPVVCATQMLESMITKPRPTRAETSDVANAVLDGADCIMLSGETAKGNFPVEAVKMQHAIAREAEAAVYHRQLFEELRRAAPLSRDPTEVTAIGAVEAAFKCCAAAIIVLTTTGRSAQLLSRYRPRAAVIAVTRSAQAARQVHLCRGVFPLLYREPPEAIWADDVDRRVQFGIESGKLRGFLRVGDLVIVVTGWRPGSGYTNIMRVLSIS
T1 sequence (P14618 2-531 limits assumed): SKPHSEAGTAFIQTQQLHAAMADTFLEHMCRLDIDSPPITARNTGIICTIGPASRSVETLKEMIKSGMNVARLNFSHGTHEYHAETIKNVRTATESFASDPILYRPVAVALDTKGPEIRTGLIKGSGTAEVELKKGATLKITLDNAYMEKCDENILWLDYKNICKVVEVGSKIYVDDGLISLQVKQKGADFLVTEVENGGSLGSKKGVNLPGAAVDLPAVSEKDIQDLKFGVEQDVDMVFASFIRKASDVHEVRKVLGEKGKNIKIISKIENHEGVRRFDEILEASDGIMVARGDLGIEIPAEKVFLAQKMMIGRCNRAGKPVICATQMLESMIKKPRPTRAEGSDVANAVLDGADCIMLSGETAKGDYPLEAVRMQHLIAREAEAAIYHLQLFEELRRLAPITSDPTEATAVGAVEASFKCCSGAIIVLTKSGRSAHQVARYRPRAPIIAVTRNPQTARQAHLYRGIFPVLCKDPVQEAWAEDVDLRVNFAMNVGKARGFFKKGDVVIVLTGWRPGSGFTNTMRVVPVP

In the case of `COc1ccc(S(=O)(=O)c2ccc3c(=O)n(Cc4cccc5c4CCN5)ncc3c2)cc1` [Example 2, 2-(indolin-4-ylmethyl)-6-((4-methoxyphenyl)sulfonyl)phthalazin-1(2H)-one], in assay [1], the maximal response (Emax) was found to be 97% and the pEC50 was 7.18. The compound further showed a pIC50 in assay [2] of 9.10.

Consider `COc1ccc(S(=O)(=O)c2ccc3c(=O)n(Cc4cccn(C)c4=O)ncc3c2)cc1` [Example 4, 6-((4-methoxyphenyl)sulfonyl)-2-((1-methyl-2-oxo-1,2-dihydropyridin-3-yl)methyl)phthalazin-1(2H)-one], for which, in assay [1], the maximal effect (Emax) was 106% and the pEC50 was 7.27. The same compound showed a pIC50 in assay [2] of 9.15.

Take `COc1ccc(S(=O)(=O)c2ccc3c(=O)n(Cc4cc[nH]n4)ncc3c2)cc1` [Example 6, 2-((1H-pyrazol-3-yl)methyl)-6-((4-methoxyphenyl)sulfonyl)phthalazin-1(2H)-one]: in assay [1], the Emax is 109% and the negative logarithm of the EC50 (pEC50) was 7.41. Further, the negative logarithm of the IC50 (pIC50) in assay [2] is 8.77.

Regarding `O=c1c2ccc(S(=O)(=O)c3ccccc3)cc2cnn1Cc1cncc(O)c1` [Example 7, 2-((5-hydroxypyridin-3-yl)methyl)-6-(phenylsulfonyl)phthalazin-1(2H)-one], in assay [1], the Emax was found to be 99.8% and the pEC50 was 6.75. In assay [2], this compound had a pIC50 of 8.17.

With `COCC(c1ccc(OC)nc1)n1ncc2cc(S(=O)(=O)c3ccccc3)ccc2c1=O` (stereo not drawn) [Example 8, 2-(2-methoxy-1-(6-methoxypyridin-3-yl)ethyl)-6-(phenylsulfonyl)phthalazin-1(2H)-one], in assay [1], the maximal effect (Emax) was determined as 80.8% and the pEC50 was 6.03. Also, in assay [2], the pIC50 was 6.66.

On to `NC(=O)c1ncccc1Cn1ncc2cc(S(=O)(=O)c3ccccc3)ccc2c1=O` [Example 9, 3-((1-oxo-6-(phenylsulfonyl)phthalazin-2(1H)-yl)methyl)picolinamide], for which, in assay [1], the Emax came out at 105% and the pEC50 is 6.44. Also, in assay [2], the pIC50 was 7.76.

Turning to `O=c1c2ccc(S(=O)(=O)c3ccccc3)cc2cnn1Cc1ccn(CCO)n1` [Example 10, 2-((1-(2-hydroxyethyl)-1H-pyrazol-3-yl)methyl)-6-(phenylsulfonyl)phthalazin-1(2H)-one], in assay [1], the Emax amounted to 98.8% and the negative logarithm of the EC50 (pEC50) is 6.78. This compound gave a pIC50 in assay [2] of 8.11.

For the compound `CCn1ccc(Cn2ncc3cc(S(=O)(=O)c4ccccc4)ccc3c2=O)n1` [Example 11, 2-((1-ethyl-1H-pyrazol-3-yl)methyl)-6-(phenylsulfonyl)phthalazin-1(2H)-one], in assay [1], the Emax came out at 99% and the pEC50 was 7.14. The compound also gave a pIC50 in assay [2] of 8.41.

Take `Cc1c[nH]nc1Cn1ncc2cc(S(=O)(=O)c3ccccc3)ccc2c1=O` [Example 12, 2-((4-methyl-1H-pyrazol-3-yl)methyl)-6-(phenylsulfonyl)phthalazin-1(2H)-one]: in assay [1], the Emax worked out at 92% and the pEC50 is 7.20. In assay [2], the pIC50 is 8.57.

As for `NC(=O)c1sccc1Cn1ncc2cc(S(=O)(=O)c3ccccc3)ccc2c1=O` [Example 13, 3-((1-oxo-6-(phenylsulfonyl)phthalazin-2(1H)-yl)methyl)thiophene-2-carboxamide], in assay [1], the Emax came out at 113% and the pEC50 is 6.93. The compound also had a pIC50 in assay [2] of 8.51.

Consider `NC(=O)c1c[nH]nc1Cn1ncc2cc(S(=O)(=O)c3ccccc3)ccc2c1=O` [Example 15, 3-((1-oxo-6-(phenylsulfonyl)phthalazin-2(1H)-yl)methyl)-1H-pyrazole-4-carboxamide], for which, in assay [1], the Emax was 124% and the pEC50 is 6.61. Besides, the negative-log IC50 (pIC50) in assay [2] was 7.80.

For `CNC(=O)c1occc1Cn1ncc2cc(S(=O)(=O)c3ccc(OC)cc3)ccc2c1=O` [Example 17, 3-((6-((4-methoxyphenyl)sulfonyl)-1-oxophthalazin-2(1H)-yl)methyl)-N-methylfuran-2-carboxamide], in assay [1], the Emax came out at 54.9% and the pEC50 is 6.95. Also, the pIC50 in assay [2] is 8.54.

With `O=c1c2ccc(S(=O)(=O)c3ccccc3)cc2cnn1C(CO)c1ccccc1` (stereo not drawn) [Example 19, 2-(2-hydroxy-1-phenylethyl)-6-(phenylsulfonyl)phthalazin-1(2H)-one], in assay [1], the Emax came out at 65.3% and the pEC50 was 6.88. Further, the pIC50 in assay [2] was 8.38.

As to `O=c1c2ccc(S(=O)(=O)c3ccccc3)cc2cnn1Cc1ccccc1CO` [Example 20, 2-(2-(hydroxymethyl)benzyl)-6-(phenylsulfonyl)phthalazin-1(2H)-one], in assay [1], the Emax was 90.7% and the pEC50 is 6.60. This compound also gave a pIC50 in assay [2] of 8.19.

As to `O=c1c2ccc(S(=O)(=O)c3ccccc3)cc2cnn1Cc1ccc(OCCO)nc1` [Example 21, 2-((6-(2-hydroxyethoxy)pyridin-3-yl)methyl)-6-(phenylsulfonyl)phthalazin-1(2H)-one], in assay [1], the Emax turned out to be 102% and the pEC50 is 6.88. Besides, in assay [2], the pIC50 was 7.92.

Regarding `COc1ccc(S(=O)(=O)c2ccc3c(=O)n(Cc4ccn(CCO)n4)ncc3c2)cc1` [Example 24, 2-((1-(2-hydroxyethyl)-1H-pyrazol-3-yl)methyl)-6-((4-methoxyphenyl)sulfonyl)phthalazin-1(2H)-one], in assay [1], the Emax was 123% and the pEC50 was 6.97. Further, the pIC50 in assay [2] was 8.52.

Turning to `O=c1c2ccc(S(=O)(=O)c3ccccc3)cc2cnn1Cc1ccc2c(c1)OCCO2` [Example 29, 2-((2,3-dihydrobenzo[b][1,4]dioxin-6-yl)methyl)-6-(phenylsulfonyl)phthalazin-1(2H)-one], in assay [1], the Emax was determined as 85% and the negative logarithm of the EC50 (pEC50) is 7.47. Also, the pIC50 in assay [2] was 9.10.

Consider `Cc1ncc(Cn2ncc3cc(S(=O)(=O)c4ccccc4)ccc3c2=O)s1` [Example 30, 2-((2-methylthiazol-5-yl)methyl)-6-(phenylsulfonyl)phthalazin-1(2H)-one], for which, in assay [1], the Emax is 99.4% and the pEC50 is 6.13. In assay [2], this compound had a pIC50 of 7.80.

As to `COc1cncc(Cn2ncc3cc(S(=O)(=O)c4ccccc4)ccc3c2=O)c1` [Example 31, 2-((5-methoxypyridin-3-yl)methyl)-6-(phenylsulfonyl)phthalazin-1(2H)-one], in assay [1], the Emax was 74.9% and the pEC50 is 6.09. Also, in assay [2], the pIC50 is 7.38.

As for `O=c1c2ccc(S(=O)(=O)c3ccccc3)cc2cnn1Cc1ccccc1F` [Example 32, 2-(2-fluorobenzyl)-6-(phenylsulfonyl)phthalazin-1(2H)-one], in assay [1], the Emax turned out to be 99.6% and the pEC50 is 6.79. The compound also had a pIC50 in assay [2] of 8.49.

`COc1ccc(S(=O)(=O)c2ccc3c(=O)n(Cc4ccnc(O)c4)ncc3c2)cc1` [Example 55, 2-((2-hydroxypyridin-4-yl)methyl)-6-((4-methoxyphenyl)sulfonyl)phthalazin-1(2H)-one] had a pIC50 in assay [2] of 7.66.

For the compound `Cc1cc(F)c(Cn2ncc3cc(S(=O)(=O)c4cn[nH]c4)ccc3c2=O)nc1C` [Example 321], in assay [1], the Emax turned out to be 100% and the pEC50 is 7.13. For the same compound, in assay [3], the pEC50 is 8.18 and the Emax came to 134%.

Turning to `O=c1c2ccc(S(=O)(=O)c3cn[nH]c3)cc2cnn1Cc1cc2n(n1)CCO2` [Example 323], the values for the negative logarithm of the EC50 (pEC50) in assay [1] and in assay [3] were 7.30 and 8.19, respectively.

Take `CC(O)c1nc(S(=O)(=O)c2ccc3c(=O)n(Cc4ccc5c(n4)CCO5)ncc3c2)cs1` (stereo not drawn) [Example 327]: in assay [1], the Emax amounted to 10% and the pEC50 was 7.43. Also, in assay [3], the pEC50 is 8.43 and the Emax worked out at 124%.

As for `O=C(c1ccc(NS(=O)(=O)c2cccc3cccnc23)cc1)N1CCN(CC2CC2)CC1` [Mitapivat, mitapivat, reference compound], the pIC50 in assay [2] is 8.36.
